Reference: PMC8284444, “Two β-Lactamase Variants with Reduced Clavulanic Acid Inhibition Display Different Millisecond Dynamics” (Antimicrobial Agents and Chemotherapy, 2021)

How the values were obtained:
Format in all cases: biochemical
[1] = target: T1, BlaC (β-lactamase of Mycobacterium tuberculosis) (Mycobacterium tuberculosis, UniProt P9WKD3, G144N)
[2] = target: BlaC (β-lactamase of Mycobacterium tuberculosis) (Mycobacterium tuberculosis, UniProt P9WKD3, R229S)
[3] = target: BlaC (β-lactamase of Mycobacterium tuberculosis) (Mycobacterium tuberculosis, UniProt P9WKD3, K250R)
[4] = target: T1, BlaC (β-lactamase of Mycobacterium tuberculosis); remark: listed apart in the source

O=C(O)[C@H]1/C(=C/CO)O[C@@H]2CC(=O)N21 [clavulanic acid]
nitrocefin hydrolysis progress curves with 10 μM clavulanic acid (reduced inhibi) [1]: The G132N and K234R mutations convey resistance to inhibition, maintaining some level of activity even after prolonged exposure.
nitrocefin hydrolysis progress curves with 10 μM clavulanic acid [2]: The R213S mutant was found to require more time than wt BlaC to reach full inhibition.
nitrocefin hydrolysis progress curves with 10 μM clavulanic acid (reduced inhibi) [3]: The G132N and K234R mutations convey resistance to inhibition, maintaining some level of activity even after prolonged exposure.

O=C(Cc1cccs1)N[C@@H]1C(=O)N2C(C(=O)O)=C(/C=C/c3ccc([N+](=O)[O-])cc3[N+](=O)[O-])CS[C@H]12 [nitrocefin]
nitrocefin hydrolysis by purified enzyme [4]: is plotted for wild-type (WT) BlaC and single-amino-acid mutants
